Reference: ChEMBL document CHEMBL5604063, “ASAP - DENV-2 NS2B-NS3 protease fluorescence dose response” (2024)
“And” between values parts separate entries of the source, which are not always exact repeats. Identical values can stand only once.

The molecules below were run against Genome polyprotein (dengue virus type 2, UniProt P29990).
Format: functional, Thailand/16681/1984

Sequence of Genome polyprotein (P29990 1346-1475 limits assumed): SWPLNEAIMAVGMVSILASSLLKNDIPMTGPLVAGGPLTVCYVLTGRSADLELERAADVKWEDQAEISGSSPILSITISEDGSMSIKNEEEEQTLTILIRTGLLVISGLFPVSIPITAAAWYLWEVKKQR
Sequence of Genome polyprotein (P29990 1476-2093 limits assumed): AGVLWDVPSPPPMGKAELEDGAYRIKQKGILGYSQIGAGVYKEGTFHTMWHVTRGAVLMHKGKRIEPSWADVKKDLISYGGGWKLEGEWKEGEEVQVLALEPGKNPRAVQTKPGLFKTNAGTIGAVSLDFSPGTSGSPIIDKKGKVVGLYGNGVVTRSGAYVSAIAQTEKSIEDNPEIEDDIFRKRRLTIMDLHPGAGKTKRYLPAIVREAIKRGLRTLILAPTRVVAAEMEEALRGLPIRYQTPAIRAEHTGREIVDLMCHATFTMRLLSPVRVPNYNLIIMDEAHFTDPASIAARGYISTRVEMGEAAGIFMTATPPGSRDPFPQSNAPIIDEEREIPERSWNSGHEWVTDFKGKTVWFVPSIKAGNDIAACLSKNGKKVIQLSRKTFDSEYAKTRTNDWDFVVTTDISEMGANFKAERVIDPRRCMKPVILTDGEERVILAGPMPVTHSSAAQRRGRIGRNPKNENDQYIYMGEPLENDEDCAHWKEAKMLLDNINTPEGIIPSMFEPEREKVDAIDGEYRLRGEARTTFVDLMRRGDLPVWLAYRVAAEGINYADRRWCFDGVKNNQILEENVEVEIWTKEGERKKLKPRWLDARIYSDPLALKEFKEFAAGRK

| Structure (SMILES) | IC50 |
| --- | --- |
| O=C1c2c(O)ccc([N+](=O)[O-])c2C(=O)c2c([N+](=O)[O-])ccc(O)c21 | 12.7 µM and > 99.5 µM |
| O=C(C(=O)N1CCOCC1)c1c[nH]c2ccccc12 | > 99.5 µM |
| COc1ccc(S(=O)(=O)n2nc(OC(=O)c3cccc(-c4ccccc4Cl)c3)cc2N)cc1 | > 99.5 µM |
| CCCCCC(=O)N[C@H](C(=O)NCc1cccc(CN)c1)c1ccc(OCc2ccccc2)cc1 | 84.6 µM |
| CCCC[C@H](NC(C)=O)C(=O)N[C@H](C(=O)NCc1ccc(C(N)=O)cc1)c1ccc(OCc2ccccc2)cc1 | > 99.5 µM |
| NC(=O)c1cccc(NC(=O)[C@@H](NC(=O)c2ccc(Oc3ccc(C(F)(F)F)cc3)cc2)c2ccc(OCc3ccccc3)cc2)c1 | > 99.5 µM |
| O=C(Nc1ccc2c(c1)B(O)OC2)c1cccc(OCc2c(Cl)cccc2Cl)c1 | > 99.5 µM |
| COc1ccc(S(=O)(=O)Nc2ccc(C(=O)Nc3nc4ccccc4s3)cc2)cc1 | > 99.5 µM |
| CNC(=O)c1cc(Cl)ccc1NS(=O)(=O)c1cccc(Oc2ccccc2)c1 | > 99.5 µM |
| O=C(N[C@H]1CCNC1=O)c1cc(Cl)ccc1NS(=O)(=O)c1ccc(Oc2ccccc2Cl)cc1 | 87.3 µM |
| CN(C)c1ccc(/C=C/C(=O)C(=O)N2CCOCC2)cc1 | 88.8 µM |
| Nc1ccc(C(=O)Nc2nc3ccccc3s2)nc1 | > 99.5 µM |
| C[C@@H](NC(=O)c1cc(Cl)ccc1NS(=O)(=O)c1ccc(Oc2ccccc2Cl)cc1)[C@H]1CCCO1 | > 99.5 µM |
| O=C(c1cc(Cl)ccc1NS(=O)(=O)c1ccc(Oc2ccccc2Cl)cc1)N1CC[C@H](CO)C1 | 91.2 µM |
| CNC(=O)c1cc(Cl)ccc1NS(=O)(=O)c1ccc(OC2CCCC2)nc1 | > 99.5 µM |
| O=C(N[C@H]1CCOC1)c1cc(Cl)ccc1NS(=O)(=O)c1ccc(Oc2ccccc2Cl)cc1 | 67.4 µM |
| O=S(=O)(Nc1ccc(Oc2ccccc2Cl)cc1)c1c[nH]c2ccc(Cl)cc12 | > 99.5 µM |
| Cc1ccc(CNC(=O)c2cc(Cl)ccc2NS(=O)(=O)c2ccc(Oc3ccccc3Cl)cc2)s1 | > 99.5 µM |
| Cc1nnc([C@H](C)n2cc(C3CCNCC3)c(C)n2)o1 | > 99.5 µM |
| CC[C@H]1CCN(C(=O)c2cc(Cl)ccc2NS(=O)(=O)c2ccc(Oc3ccccc3Cl)cc2)C1 | > 99.5 µM |
| CCCC[C@@H](NC(=O)OC(C)(C)C)C(=O)N[C@@H](C(=O)NCc1ccc(CN)cc1)c1ccc(OCc2ccccc2)cc1 | 36.4 µM |
| O=C(/C=C/c1ccc(N2CCNCC2)cc1)C(=O)N1CCOCC1 | > 99.5 µM |
| CNC(=O)c1cccc(CNc2cc(Cl)cc(C(=O)NC(C)(C)CO)c2)c1 | > 99.5 µM |
| CCCC[C@H](N)C(=O)N[C@H](C(=O)NCc1ccc(C(N)=O)cc1)c1ccc(OCc2ccccc2)cc1 | > 99.5 µM |
| CCc1ccc(NS(=O)(=O)c2ccc(Oc3ccccc3Cl)cc2)c(C(=O)NC)c1 | > 99.5 µM |
| CNC(=O)c1cc(OC)ccc1NS(=O)(=O)c1ccc(Oc2ccccc2Cl)cc1 | > 99.5 µM |

| Structure (SMILES) | IC50 |
| --- | --- |
| C[C@H]1COCCN1C(=O)c1cc(Cl)ccc1NS(=O)(=O)c1ccc(Oc2ccccc2Cl)cc1 | 95.6 µM |
| CNC(=O)c1cc(Cl)c(OC)cc1NS(=O)(=O)c1ccc(Oc2ccccc2Cl)cc1 | 31.9 µM |
| CCCC[C@H](N)C(=O)N[C@@H](C(=O)NCc1ccc(C(N)=O)cc1)c1ccc(OCc2ccccc2)cc1 | > 99.5 µM |
| COC[C@@H](C)CNC(=O)c1cc(Cl)ccc1NS(=O)(=O)c1ccc(Oc2ccccc2Cl)cc1 | > 99.5 µM |
| CNC(=O)c1cc(C#N)ccc1NS(=O)(=O)c1ccc(Oc2ccccc2Cl)cc1 | 44.8 µM |
| NC(=O)c1cn(C[C@H]2CCCN2c2ccnc3ccccc23)nn1 | > 99.5 µM |
| Nc1ccc(/C=C/C(=O)C(=O)N2CCN(CCc3ccccc3)CC2)cc1 | > 99.5 µM |
| CCCC[C@H](NC(C)=O)C(=O)N[C@H](C(=O)NCc1ccc(CN)cc1)c1ccccc1 | > 99.5 µM |
| CCn1ccnc(N2CC[C@H](c3cccnc3)C2)c1=O | > 99.5 µM |
| CCn1ccnc(N2CC[C@H](c3ccn[nH]3)C2)c1=O | > 99.5 µM |
| NC(=O)c1ccccc1NS(=O)(=O)c1ccc(Oc2ccccc2Cl)cc1 | > 99.5 µM |
| CCCN(C)C(=O)c1cc(Cl)ccc1NS(=O)(=O)c1ccc(Oc2ccccc2Cl)cc1 | 27.9 µM |
| CCCCCNC(=O)c1cc(Cl)ccc1NS(=O)(=O)c1ccc(Oc2ccccc2Cl)cc1 | > 99.5 µM |
| CCn1ccnc(N2C[C@@H](O)[C@H](c3c[nH]c4ccccc34)C2)c1=O | > 99.5 µM |
| O=C(O)c1cccc(NC(=O)c2cccc(OCc3c(Cl)cccc3Cl)c2)c1 | > 99.5 µM |
| CNC(=O)c1cccc(CCC(=O)Nc2cc(Cl)cc(C(=O)NC(C)(C)CO)c2)c1 | > 99.5 µM |
| N=C(N)NCCc1ccc(OC(=O)Nc2ccccc2)cc1 | > 99.5 µM |
| Cc1cc(NS(=O)(=O)c2ccc(Oc3ccccc3Cl)cc2)c(C(=O)NCC(F)(F)F)cc1F | 22.1 µM |
| CCCC[C@H](NC(=O)OC(C)(C)C)C(=O)N[C@H](C(=O)NCc1ccc(C(N)=O)cc1)c1ccc(OCc2ccccc2)cc1 | > 99.5 µM |
| CCn1ccnc(N2CC[C@@H](C(=O)NC)C2)c1=O | > 99.5 µM |
| N#Cc1cccc(NC(=O)c2cccc(OCc3c(Cl)cccc3Cl)c2)c1 | > 99.5 µM |
| O=C(c1cc(Cl)ccc1NS(=O)(=O)c1ccc(Oc2ccccc2Cl)cc1)N1CCCC1 | 66.2 µM |
| NCc1cccc(NC(=O)[C@@H](NC(=O)OCc2ccccc2)c2ccc(F)cc2F)c1 | > 99.5 µM |
| CCn1c(=O)c(N2CC[C@@H](CO)C2)nc2ccccc21 | > 99.5 µM |
| CC(C)c1ccc([C@@H](NC(=O)OCc2ccccc2)C(=O)Nc2cccc(CN)c2)cc1 | > 99.5 µM |
| CS(=O)(=O)Nc1ccc(C(=O)Nc2nc3ccccc3s2)cc1 | > 99.5 µM |

| Structure (SMILES) | IC50 |
| --- | --- |
| CNC(=O)c1cc(Br)cnc1NS(=O)(=O)c1ccc(Oc2ccccc2Cl)cc1 | 71.4 µM |
| CCn1ccnc(N2CCC(c3c[nH]c4ccccc34)CC2)c1=O | > 99.5 µM |
| O=C(NCc1cocn1)c1cc(Cl)ccc1NS(=O)(=O)c1ccc(Oc2ccccc2Cl)cc1 | 24.7 µM |
| COc1cc(Cc2c(-c3ccc(F)cc3)noc2C)nc(N2CCNCC2)n1 | > 99.5 µM |
| C[C@@H](NC(=O)c1cc(Cl)ccc1NS(=O)(=O)c1ccc(Oc2ccccc2Cl)cc1)C1COC1 | 70.2 µM |
| NCc1cccc(NC(=O)[C@H]2c3ccccc3CCN2C(=O)OCc2ccccc2)c1 | > 99.5 µM |
| CC(C)Nc1nc2ccc(C(=O)Nc3nnnn3-c3ccccn3)cc2[nH]1 | > 99.5 µM |
| NCc1cccc(NC(=O)[C@@H](NC(=O)OCc2ccccc2)C(C2CCC2)C2CCC2)c1 | > 99.5 µM and 98.9 µM |
| CCn1ccnc(N2CC[C@@H](CC(N)=O)C2)c1=O | > 99.5 µM |
| N=C(N)Nc1ccc(NC(=O)Oc2ccccc2)cc1 | > 59.8 µM |
| COc1cc(COc2cncc3ccccc23)nc(N2CCNCC2)n1 | > 99.5 µM |
| O=S(=O)(Nc1ccc(Cl)cc1)c1ccc(Oc2ccccc2Cl)cc1 | > 99.5 µM |
| CCn1ccnc(N2CC[C@H](c3cccc(C#N)c3)C2)c1=O | > 99.5 µM |
| CN(C)Cc1ccc(C(=O)Nc2cc(Cl)cc(C(=O)NC(C)(C)CO)c2)[nH]1 | > 99.5 µM |
| CCn1ccnc(N2CC[C@H](c3c[nH]c4ccccc34)C2)c1=O | > 99.5 µM |
| N=C(N)Nc1ccc(OC(=O)Nc2ccccc2)cc1 | > 99.5 µM |
| O=C(NCC1CC1)c1cc(Cl)ccc1NS(=O)(=O)c1ccc(Oc2ccccc2Cl)cc1 | 22 µM |
| NCc1ccc(/C=C/C(=O)C(=O)N2CCOCC2)cc1 | > 99.5 µM |
| CCn1ccnc(N2CC[C@H](c3ccc(OC)nc3)C2)c1=O | > 99.5 µM |
| CCn1ccnc(N2CC[C@H](c3ccc(F)cc3)C2)c1=O | > 99.5 µM |
| CCn1ccnc(N2CC[C@H](C3CCOCC3)C2)c1=O | > 99.5 µM |
| N=C(N)NCCc1ccc(NC(=O)Oc2ccccc2)cc1 | > 99.5 µM |
| CNC(=O)c1cc(Cl)ccc1NS(=O)(=O)c1ccc(Oc2ccccc2Cl)cc1 | 33.7 µM |
| NCc1cccc(NC(=O)[C@@H](NC(=O)OCc2ccccc2)c2cc(F)cc(F)c2)c1 | > 99.5 µM |
| CCn1ccnc(N2CC[C@H](c3ccncc3)C2)c1=O | > 99.5 µM |
| CC(C)CNC(=O)c1cc(Cl)ccc1NS(=O)(=O)c1ccc(Oc2ccccc2Cl)cc1 | 13 µM |

| Structure (SMILES) | IC50 |
| --- | --- |
| CCCC[C@H](NC(C)=O)C(=O)N[C@H](C(=O)Nc1ccc(C(N)=O)cc1)c1ccc(OCc2ccccc2)cc1 | > 99.5 µM |
| CC(C)(CO)NC(=O)c1cc(Cl)cc(NC(=O)c2cc(Cl)ccc2O)c1 | > 99.5 µM |
| CS(=O)(=O)c1ccc(N2CCNCC2)cc1NC(=O)c1cccc2ncccc12 | > 99.5 µM |
| CCOc1ccc([C@@H](NC(=O)OCc2ccccc2)C(=O)Nc2cccc(CN)c2)cc1 | > 99.5 µM |
| O=C(c1cc(Cl)ccc1NS(=O)(=O)c1ccc(Oc2ccccc2Cl)cc1)N1CCC[C@@H]1CO | 62.7 µM |
| CCn1ccnc(N2CC[C@H](C#N)C2)c1=O | > 99.5 µM |
| CCn1ccnc(N2CC[C@@H](CO)C2)c1=O | > 99.5 µM |
| NCc1cccc(NC(=O)[C@@H](NC(=O)OCc2ccccc2)c2cccc(F)c2F)c1 | > 99.5 µM |
| CN(CCS(N)(=O)=O)C(=O)c1cc(Cl)ccc1NS(=O)(=O)c1ccc(Oc2ccccc2Cl)cc1 | 84 µM |
| CCn1ccnc(N2CC[C@@H](Cc3ccncc3)C2)c1=O | > 99.5 µM |
| O=C(O)c1cccc(NC(=O)c2ccc3[nH]ccc3c2)c1 | > 99.5 µM |
| CCn1ccnc(N2CC[C@@H](CC#N)C2)c1=O | > 99.5 µM |
| CCCC[C@H](NC(C)=O)C(=O)N[C@H](C(=O)NCc1ccc(CN)cc1)c1ccc(OCc2ccccc2)cc1 | 77.3 µM |
| Cc1cc(-n2nccc2NC(=O)[C@]2(c3ccc(F)cc3)CCCNC2)ncn1 | > 99.5 µM |
| N=C(N)NCCc1cccc(B(O)O)c1 | > 99.5 µM |
| N=C(N)NCc1ccc(NC(=O)Oc2ccccc2)cc1 | > 59.8 µM |
| N=C(N)NCc1ccc(OC(=O)Nc2ccccc2)cc1 | > 99.5 µM |
| O=C(NCc1ccccc1)c1cc(O)ccc1NS(=O)(=O)c1ccc(Oc2ccccc2Cl)cc1 | 86.4 µM |
| CNC(=O)c1cc(Cl)c(F)cc1NS(=O)(=O)c1ccc(Oc2ccccc2Cl)cc1 | 14.9 µM |
| NCc1cccc(NC(=O)[C@@H](NC(=O)OCc2ccccc2)c2ccc(Cl)cc2)c1 | > 99.5 µM |
| CNC(=O)c1cnncc1NS(=O)(=O)c1ccc(Oc2ccccc2Cl)cc1 | > 99.5 µM |
| CC[C@H]1CCN(c2nccn(CC)c2=O)C1 | > 99.5 µM |
| O=C(O)c1cc(Cl)ccc1NS(=O)(=O)c1ccc(Oc2ccccc2Cl)cc1 | 13.8 µM |
| CC(C)(CO)NC(=O)c1cc(Cl)cc(NC(=O)c2ccc(O)nc2)c1 | > 99.5 µM |
| CCn1ccnc(N2CC[C@H](c3ccc(C#N)cc3)C2)c1=O | > 99.5 µM |
| O=C(Nc1ccc(F)nc1)Oc1ccccc1 | > 59.8 µM |
